According to paper PMC8138767, “Intrinsically disordered substrates dictate SPOP subnuclear localization and ubiquitination activity” (The Journal of Biological Chemistry, 2021):
“Also recorded” adds a separate entry of the source.

What was measured:
V5-SPOP in HeLa cells = test: Immunofluorescence: V5-SPOP localization on coexpression of GFP–Pdx1 variants; assay type: cell-based; conditions: 24 h after transfection; for V5-SPOP localization, high Pdx1 expression: cells expressing GFP–Pdx1 at high levels (high GFP intensity); for V5-SPOP localization, low Pdx1 expression: cells expressing GFP–Pdx1 at low levels; for SPOP relocalization from nuclear speckles by Pdx1 variant: coexpressed with V5-SPOP, three biological replicates
Method: (§1) HeLa cells were cultured under sterile conditions with Dulbecco’s modified Eagle’s medium (DMEM) (Gibco) supplemented with 10% fetal bovine serum and antibiotics/antimycotics (Gibco) (see Table S5 for key reagents and resources). T-REx-293 cells (cat. no. R710-07) were obtained from Invitrogen. Cells were grown on DMEM supplemented with 10% fetal bovine serum (Gibco), GlutaMax (Gibco), and Penicillin-Streptomycin (Gibco) and kept under selection by 5 μg/ml blasticidin. All cells were grown at 37 °C under 5% CO2 and were mycoplasma free at the time the experiments were performed.
(§2) A plasmid encoding full-length human Pdx1 (amino acids 1-283) in pcDNA3.1 with a C-terminal GFP tag was purchased from GenScript. Full-length mouse SPOP (identical to the human sequence) with a V5 epitope tag in pcDNA3 was generated previously ([21]). The coding sequence for full-length mouse SPOP was inserted into pcDNA4/TO/myc (Invitrogen) for the T-REx system. pcDNA3-myc-CUL3 (cat no. 19893) and pcDNA–HA2–ROC1 (Rbx1) (cat no. 19897) were obtained from Addgene. pcDNA3 containing His-ubiquitin was a gift from Wenyi Wei.
For immunofluorescence experiments, 0.5 × 10^6 cells were seeded on borosilicate glass coverslips in 6-well plates. After 24 h, cells were transfected with 400 ng of each plasmid using the Qiagen Effectene transfection reagent according to the manufacturer protocol. 24 h after transfection, the cells were treated with 4% paraformaldehyde in PBS for 30 min at RT. Cells were permeabilized with 0.1% Triton X-100 in PBS (PBST) for 5 min at 21 °C, followed by blocking in 0.5% BSA in PBST for 1 h at 21 °C. Signal from GFP-tagged proteins was observed directly. Cells were stained in primary antibodies diluted in 0.5% BSA in PBST overnight at 4 °C with mouse anti-SC-35 (1:300, ab11826; Abcam) and chicken anti-V5 (1:300, NB600-379; Novus Biologicals). Cells were incubated with secondary antibodies for 2 h at 21 °C. The secondary antibodies used were goat anti-mouse Alexa Fluor 647 (1:250, A-21235; Thermo Fisher) and goat anti-chicken Alexa Fluor 555 (1:250, A-21437; Thermo Fisher). Cells on coverslips were treated with 300 nM 4′,6-diamidino-2-phenylindole (DAPI) for 5 min at 21 °C. Coverslips were mounted on glass slides with ProLong Diamond mounting reagent (Thermo Fisher) and cured before imaging on a Zeiss LSM 880 Upright microscope. All images were analyzed and prepared in Fiji ([53]).
All immunofluorescence data were averaged over three biological replicates. Cells not expressing both Pdx1 and SPOP were excluded from sampling. Raw images were collected in the Zeiss Zen software and then exported for viewing and analysis in Fiji. Nuclei of individual cells were designated manually in Fiji using the DAPI channel as a guide. The cells were binned based on whether SPOP was localized to nuclear speckles (puncta); cells with both diffuse and punctate SPOP signal were binned as “speckled.” The grayscale signal intensity of the green channel (Pdx1–GFP) was averaged over the DAPI-designated nuclear area. Next, the raw GFP intensity data points (one data point per cell analyzed) were plotted to generate a violin plot distribution. The average, minimum, and maximum values are shown by horizontal lines on the plot. Individual data points are also shown for rigor. […] All plotting and statistical tests were performed using in-house python scripts that can be found at https://github.com/idpemery/spop-pdx1.

HeLa cells = test: Immunofluorescence: subcellular localization / phase separation of the protein itself; assay type: cell-based; conditions: confocal fluorescence microscopy
Method: as §1, §2
For immunofluorescence experiments, 0.5 × 10^6 cells were seeded on borosilicate glass coverslips in 6-well plates. After 24 h, cells were transfected with 400 ng of each plasmid using the Qiagen Effectene transfection reagent according to the manufacturer protocol. 24 h after transfection, the cells were treated with 4% paraformaldehyde in PBS for 30 min at RT. Cells were permeabilized with 0.1% Triton X-100 in PBS (PBST) for 5 min at 21 °C, followed by blocking in 0.5% BSA in PBST for 1 h at 21 °C. Signal from GFP-tagged proteins was observed directly. […] All images were analyzed and prepared in Fiji ([53]).
All immunofluorescence data were averaged over three biological replicates. […] Next, the raw GFP intensity data points (one data point per cell analyzed) were plotted to generate a violin plot distribution. […]

[1] = In vitro phase separation of Pdx1; assay type: physicochemical
SPOP = conditions: previously described, no reference given; cited from earlier work
Text: SPOP derives its name from the […]. Specifically, SPOP colocalizes with nuclear speckles but has also been reported in other subnuclear compartments ([24], [26]). The nuclear speckles that house SPOP in the absence of high concentrations of substrate are liquid-like in nature ([21]). The SPOP substrate DAXX typically localizes to promyelocytic leukemia bodies ([27]).

For “Pdx1: full-length human Pdx1 (amino acids 1-283) with a C-terminal GFP tag”, the “V5-SPOP localization, high Pdx1 expression” value (V5-SPOP in HeLa cells) was “SPOP is diffuse”, the “V5-SPOP localization, high Pdx1 expression” value (V5-SPOP in HeLa cells; listed as WT–Pdx1) was “primarily diffuse V5-SPOP” and the “V5-SPOP localization, low Pdx1 expression” value (V5-SPOP in HeLa cells) was “SPOP localizes to nuclear speckles”. For the same substance, the “V5-SPOP localization, low Pdx1 expression” value (V5-SPOP in HeLa cells; listed as WT–Pdx1) was “V5-SPOP localizes to nuclear speckles”, the “SPOP relocalization from nuclear speckles by Pdx1 variant” value (V5-SPOP in HeLa cells) was “relocalization of SPOP from nuclear speckles” and the “SPOP relocalization from nuclear speckles by Pdx1 variant” value (V5-SPOP in HeLa cells; listed as GFP–Pdx1–WT) was “SPOP relocalized from nuclear speckles into the diffuse nucleoplasm”. The “localization / phase separation in cells” value (HeLa cells) was “did not undergo observable partitioning to any nuclear body; also recorded: do not form phase-separated compartments in cells”, the “localization / phase separation in cells” value (HeLa cells; listed as GFP–Pdx1) was “does not localize to punctate structures in cells; also recorded: localizes to the nucleus (marked by DAPI, blue) and does not perturb the formation of or partition to nuclear speckles” and the “in vitro phase separation” value [1] was “do not observe in vitro phase separation”. The “type of ubiquitination previously described” value (SPOP) was “primarily monoubiquitination”.
